Assay [1] has as its system recombinant rabies virus 1088 strain expressing Gaussia Luciferase (GLuc) (1088/GLuc). The class given is cell-based.
Assay [2] deals with rabies virus. The note with it: mouse, in vivo; cited from earlier work.
Assay [3] concerns mouse neuroblastoma cell strain Neuro-2A. Nature of the assay: Anti-cancer cell activity evaluation (minimum inhibitory concentration with respect to cells). The assay is classed as cell-based. The note with it: MIC, 3 days.
Where [4] appears, read: compounds of formula XXIIB and formula XXIIF.

Where two headings read alike, the source gives them in different places. Bounds are passed on as bounds.

With `NC(=O)c1nc(F)c[nH]c1=O` [Compound T-705, Favipiravir], the IC50 in assay [1] (read-out: IC50) is 30 µM. The prophylactic effect entry in assay [2] is “significant prophylactic effect was confirmed and not”.
Regarding `CC(C)CCN1C[C@@H]2C[C@H]3CN[C@]2(C(=O)NCc2cccc(F)c2)[C@@H]1[C@@H]3CCCc1ccccc1` (relative stereo) [IB-940], the IC50 in assay [1] (read-out: Anti-rabies activity) is < 5 µM. Besides, in assay [3] (compounds of formula XXIB), the Anti-cancer cell activity result was “c (c if greater than 20 µM and less than or equal to 40 µM)”.
For the compound `CC(C)CN1C[C@@H]2C[C@H]3CN[C@]2(C(=O)NCc2cccc(F)c2)[C@@H]1[C@@H]3CCCCc1ccccc1` (relative stereo) [IB-936], in assay [1] (read-out: Anti-rabies activity), the IC50 was < 5 µM. In assay [3] (compounds of formula XXIB), the Anti-cancer cell activity entry was “b (b if greater than 10 µM and less than or equal to 20 µM)”.
Turning to `COc1cccc(CNC(=O)C23CC4CN(CC(C)C)C(C4CN2)C3CCCc2ccccc2)c1` (stereo not drawn) [IF-894], the IC50 in assay [1] (read-out: Anti-rabies activity) is < 5 µM. Moreover, the Anti-cancer cell activity result in assay [3] (compounds of formula XXIF) was “c (c if greater than 20 µM and less than or equal to 40 µM)”.
`Cc1cccc(CNC(=O)[C@]23NC[C@@H]4C[C@H]2CN(CC(C)C)[C@H]3[C@@H]4CCCc2ccccc2)c1` (relative stereo) [IB-933]: the IC50 in assay [1] (read-out: Anti-rabies activity) is < 5 µM. Further, in assay [3] (compounds of formula XXIB), the Anti-cancer cell activity result was “b (b if greater than 10 µM and less than or equal to 20 µM)”.
In the case of `CC(C)CN1CC2CC3C=NC2(C(=O)NCc2ccccc2)C1C3CCCc1ccccc1` (stereo not drawn) [IIB-336], the IC50 in assay [1] (read-out: Anti-rabies activity) was < 5 µM. In addition, the Anti-cancer cell activity entry in assay [3] (setting [4]) is “c (c if greater than 20 µM and less than or equal to 40 µM)”.
For `Cc1cccc(CNC(=O)C23N=CC4CC2CN(CC(C)C)C3C4CCCc2ccccc2)c1` (stereo not drawn) [IIB-340], the IC50 in assay [1] (read-out: Anti-rabies activity) is < 5 µM. For the same compound, in assay [3] (setting [4]), the Anti-cancer cell activity result is “c (c if greater than 20 µM and less than or equal to 40 µM)”.
For `CC(C)CCN1C[C@H]2C[C@]3(C(=O)NCc4ccc(Cl)cc4)N=C[C@H]2[C@H]1[C@H]3Cc1ccccc1` (relative stereo) [IIF-326], in assay [1] (read-out: Anti-rabies activity), the IC50 was < 5 µM. The Anti-cancer cell activity result in assay [3] (compounds of formula XXIIB and formula XXIIF (continuation)) was “b (b if greater than 10 µM and less than or equal to 20 µM)”.
Consider `CC(C)CCN1CC2CC3C=NC2(C(=O)NCc2cccc(F)c2)C1C3CCCc1ccccc1` (stereo not drawn) [IIB-347], for which the IC50 in assay [1] (read-out: Anti-rabies activity) is < 5 µM. Also, in assay [3] (setting [4]), the Anti-cancer cell activity result is “c (c if greater than 20 µM and less than or equal to 40 µM)”.
As for `CC(C)CN1C[C@@H]2C[C@H]3CN[C@]2(C(=O)NCc2ccccc2)[C@@H]1[C@@H]3CCCc1ccccc1` (relative stereo) [IB-930], the IC50 in assay [1] (read-out: Anti-rabies activity) was < 5 µM. Moreover, the Anti-cancer cell activity result in assay [3] (compounds of formula XXIB) was “c (c if greater than 20 µM and less than or equal to 40 µM)”.
For the compound `CC(C)CN1CC2CC3CNC2(C(=O)NCc2cccc4ccccc24)C1C3CCc1ccccc1` (stereo not drawn) [IB-958], the IC50 in assay [1] (read-out: Anti-rabies activity) is < 5 µM. In addition, in assay [3] (compounds of formula XXIB), the Anti-cancer cell activity entry is “b (b if greater than 10 µM and less than or equal to 20 µM)”.
In the case of `CC(C)CN1C[C@@H]2C[C@H]3CN[C@]2(C(=O)NCc2cccc(Cl)c2)[C@@H]1[C@@H]3CCc1ccccc1` (relative stereo) [IB-926], the IC50 in assay [1] (read-out: Anti-rabies activity) was < 5 µM. The Anti-cancer cell activity result in assay [3] (compounds of formula XXIB) was “b (b if greater than 10 µM and less than or equal to 20 µM)”.
As to `COc1cccc(CNC(=O)C23N=CC4CC2CN(CC(C)C)C3C4CCCc2ccccc2)c1` (stereo not drawn) [IIB-341], the IC50 in assay [1] (read-out: Anti-rabies activity) is < 5 µM. In assay [3] (setting [4]), the Anti-cancer cell activity entry was “c (c if greater than 20 µM and less than or equal to 40 µM)”.
For the compound `CC(C)CN1CC2CC3C=NC2(C(=O)NCc2cccc(Cl)c2)C1C3CCCc1ccccc1` (stereo not drawn) [IIB-337], the IC50 in assay [1] (read-out: Anti-rabies activity) is < 5 µM. Further, the Anti-cancer cell activity entry in assay [3] (setting [4]) was “c (c if greater than 20 µM and less than or equal to 40 µM)”.
Regarding `Cc1ccc(CNC(=O)[C@]23NC[C@@H]4C[C@H]2CN(CC(C)C)[C@H]3[C@@H]4CCc2ccccc2)cc1` (relative stereo) [IB-928], the IC50 in assay [1] (read-out: Anti-rabies activity) was < 5 µM. In addition, in assay [3] (compounds of formula XXIB), the Anti-cancer cell activity result is “c (c if greater than 20 µM and less than or equal to 40 µM)”.

(Values after patent EP4104902B1, “COMPOUNDS AND M[…] SAME” (priority 2020, dated 2021).)
